From patent US8481263B2, “Bead-ligand-nascent protein complexes” (Ambergen, priority 2007, dated 2013) come the findings set out here.

The structures appear in SMILES notation.

This experiment addresses T1, PKCα (Homo sapiens, UniProt P17252).
T1 construct: isolate and photo-release endogenous PKCa from the undiluted detergent fractionated HeLa cell extracts; endogenous in cells; host or cells: HeLa cells (ATCC)
Kind of experiment: PKCα sub-cellular translocation measured by kinase activity after photocleavable antibody isolation. It is filed as cell-based. The note with it: cultured HeLa cells stimulated with 200 nM PMA for 5 min; detergent fractionated; kinase activity of PC-antibody isolated PKCα; n=4. Here is the method: Cultured HeLa cells (ATCC; Manassas, Va.) were stimulated for 5 min with 200 nM Phorbol-12-Myristate-13-Acetate (PMA; EMD Biosciences, Inc., San Diego, Calif.) and subsequently detergent fractionated into sub-cellular compartments according to reported procedures [Ramsby et al. (1994) Electrophoresis 15, 265-277; Ramsby & Makowski. (1999) Methods Mol Biol 112, 53-66; Chiang et al. (2000) J Biochem Biophys Methods 46, 53-68]. PMA is a potent activator of PKCα and is well known to cause translocation of the kinase from the cytosolic to the membrane sub-cellular compartments [Ross & Joyner. (1997) Endothelium 5, 321-332; Bazan & Rapoport. (1996) J Pharmacol Toxicol Methods 36, 87-95; Yazlovitskaya & Melnykovych. (1995) Cancer Lett 88, 179-183].
A photocleavable antibody conjugated solid affinity matrix was prepared and used to isolate and photo-release the antigen into solution essentially as described in Example 2 except that in this case, a photocleavable anti-IgG secondary antibody was used to immobilize the unlabeled primary antibody onto the solid affinity matrix. This antibody affinity matrix was used to isolate and photo-release endogenous PKCa from the undiluted detergent fractionated HeLa cell extracts. […]

On to `CCCCCCCCCCCCCC(=O)O[C@@H]1[C@@H](C)[C@@]2(O)[C@@H](C=C(CO)C[C@]3(O)C(=O)C(C)=C[C@@H]23)[C@@H]2C(C)(C)[C@]12OC(C)=O` [PMA, Phorbol-12-Myristate-13-Acetate], for which the “PKCα distribution, cytosol” value worked out at 16±4% and the “PKCα distribution, membrane” value is on record as 84±3%.
